# Experimental data taken from US7462324B2, “Measurement device and method for measuring electric signal from biological sample” (Panasonic Corporation, priority 2002, dated 2008).
# Tested on: rat artery smooth muscles (SM)
# Test: Intracellular potential of a rat artery smooth muscle cell on carbachol administration, voltage clamp with measurement device 10
# Format: cell-based
# Protocol: As the biological sample 21, rat artery smooth muscles (SM) were used. As a solution to be injected into the measurement device 10, DMEM culture medium to which 10% FBS (fetal bovine serum) was added was used. An SM cell was inserted into the microelectrode 1 by performing the same operation as that of EXAMPLE 2, and then an intracellular potential when 100 μM carbachol, which was an analog of acetylcholine, was introduced as a solution was measured by a voltage clamp method.
# The results were similar to those obtained by the known intracellular recording method.
# FIG. 13 is a histogram of standard deviation per 10 ms before and after a carbachol administration. The mean value and half width of the graph, obtained by approximating the histogram before and after a carbachol administration with a normal distribution are 0.185 and 0.04, respectively, before the administration and 0.545 and 0.21, respectively, after the administration. […] The reason for the increase was that by the administration of carbachol, ion channels of the […] was activated, and changes in conductance due to switching of the activated ion channels is expressed by voltage change. From FIG. 13, it was confirmed that with the measurement device 10, ion channel properties for a nerve stimulator can be determined as in the same manner in the known intracellular recording method.
smiles,measurement,setting,value
C[N+](C)(C)CCOC(N)=O [carbachol],action potential in response to carbachol,"100 μM carbachol introduced as a solution, SM cell on microelectrode, DMEM + 10% FBS, FIG. 12",detected
same,mean value of histogram of standard deviation per 10 ms of the action potential (normal distribution approximation),"after carbachol administration (100 μM), before administration 0.185, FIG. 13",0.545
